We go through two compounds from patent US10781232B2, “Sugar-dipeptide conjugates as flavor molecules” (NESTEC S.A., priority 2015, dated 2020).

What all share (assay type): in vivo, human
Experiment [1] in a line: Taste threshold concentration in model broth, three-alternative test by sensory panel. Conditions: thick-sour sensation and white-meaty oral impression, value in brackets. As to the method:
The sensory tests were performed in a sensory panel room at 20-25° C. To avoid a retro-nasal aroma or taste impression, nose clips were used. The sensory panel consisted of 8 to 14 trained persons. The panel was trained to evaluate the taste of aqueous solutions (1 mL each) of the following standard taste compounds by using a triangle test: saccharose (50 mmol/L) and L-alanine (15 mmol/L), respectively, for sweet taste; lactic acid (20 mmol/L) for sour taste; NaCl (12 mmol/L) for salty taste; caffeine (1 mmol/L) and quinine hydrochloride (0.05 mmol/L), respectively, for bitter taste; sodium glutamate (8 mmol/L, pH 5.7) for umami taste; and tannin (0.05%) for astringency. The “white meaty” oral sensations was assessed in a model broth solution prepared from monosodium glutamate monohydrate (1.9 g/L), yeast extract (2.1 g/L), maltodextrin (6.375 g/L) and sodium chloride (2.9 g/L) in bottled water (pH 5.9).
The taste threshold concentration of β-alanyl-L-histidine was determined in the model broth using a three-alternative test with two blanks and one sample in ascending concentrations of β-alanyl-L-histidine.
This taste threshold value is considerably lower than the 22′700 μmol/L (5.3 mg/g) threshold level determined for the corresponding β-alanyl-L-histidine under the same experimental model system (see Example 5). […]

Experiment [2] can be described thus: Sensory evaluation of chicken soups with and without the compound. Conditions: compound added at 2 g/L; chicken base powder 6 g and 1 g monosodium glutamate in 500 mL hot water; 12 panelists. As to the method: Chicken soups were prepared by dissolving 6 g chicken base powder (detailed recipe shown in Table 3) and 1 g monosodium glutamate in 500 mL hot water. 1-Deoxy-D-fructosyl-N-β-alanyl-L-histidine or alternatively 1-deoxy-D-fructosyl-N-β-alanyl-N-methyl-L-histidine was added at 2 g/L.
The sensory evaluation was carried out by 12 panelists, previously screened for their sensory abilities. The panelists were asked to taste a set of 2 chicken soups, one containing no 1-deoxy-D-fructosyl-N-β-alanyl-L-histidine and one containing 1-deoxy-D-fructosyl-N-β-alanyl-L-histidine (2 g/L). If sensory differences were observed, the panelists were asked to describe them.
The same sensory evaluation was carried out with the chicken soup samples with and without containing 1-deoxy-D-fructosyl-N-β-alanyl-N-methyl-L-histidine at 2 g/L broth.

A short description of experiment [3]: Sensory evaluation of tomato soups with and without the compound. The settings on record: compound added at 2 g/L; 6 g tomato base powder in 500 mL hot water. As to the method: 1-Deoxy-D-fructosyl-N-β-alanyl-L-histidine or alternatively 1-deoxy-D-fructosyl-N-β-alanyl-N-methyl-L-histidine was added at 2 g/L to the soups.

In the case of `NCCC(=O)N[C@@H](Cc1c[nH]cn1)C(=O)O` [β-alanyl-L-histidine], the taste threshold concentration in experiment [1] is 5.3 mg/g. For `Cn1cncc1C[C@H](NC(=O)CCNCC(=O)[C@@H](O)[C@H](O)[C@H](O)CO)C(=O)O` [1-deoxy-D-fructosyl-N-β-alanyl-N-methyl-L-histidine], the “sensory panel conclusion on flavour of chicken soup” value in experiment [2] is “significantly increased the boiled chicken and meaty flavours”. For the same compound, the “sensory panel conclusion on flavour of tomato soup” value in experiment [3] is listed as “increased significantly the savory, spicy notes”.
